Results published in patent US4463005A, “Bicyclic guanidines” (Imperial Chemical Industries PLC, priority 1981, dated 1984).

What was measured:
conscious mice = assay: intravenous toxicity in conscious mice; assay type: in vivo; conditions: four conscious mice, one hundred times the dose giving approximate 50% inhibition of gastric secretion in the anaesthetised rat
Experimental: (§1) No overt toxicity or side effects were noted during the rat or dog tests. The compound 4-[3-(4-[2-(2,2,2-trifluoroethyl)guanidino]pyrimid-2-ylthio)propyl]-imidazole was administered intravenously to groups of two anaesthetised rats and four conscious mice at doses which were respectively ten times and one hundred times the dose, in mg./kg., which produced an approximate 50% inhibition of gastric secretion in the anaesthetised rat.

anaesthetised rats = assay: intravenous toxicity in anaesthetised rats; assay type: in vivo; conditions: two anaesthetised rats, ten times the dose giving approximate 50% inhibition of gastric secretion in the anaesthetised rat
Experimental: as §1

## NC(=NCC(F)(F)F)Nc1ccnc(SCCCc2c[nH]cn2)n1.O=C(O)/C=C\C(=O)O [Example 2, 4-[3-(4-[2-(2,2,2-trifluoroethyl)guanidino]pyrimid-2-ylthio)propyl]imidazole dihydrogen maleate]
Conscious mice
  toxic symptoms: No toxic symptoms were noted
Anaesthetised rats
  toxic symptoms: No toxic symptoms were noted
